According to ChEMBL document CHEMBL4308841, “Synthesis, in vitro antiproliferative activity, and kinase inhibitory effects of pyrazole-containing diarylureas and diarylamides” (Eur J Med Chem, 2018):

Experiments:
Assay type in all cases: functional
[1] = test system: IGROV-1; assay: Growth inhibition of human IGROV1 cells assessed as cell growth at 10 uM incubated for 48 hrs by sulforhodamine B assay relative to control; conditions: IGROV-1, 48 h, read-out: Activity
[2] = test system: OVCAR-4; assay: Growth inhibition of human OVCAR4 cells assessed as cell growth at 10 uM incubated for 48 hrs by sulforhodamine B assay relative to control; conditions: OVCAR-4, 48 h, read-out: Activity
[3] = test system: OVCAR-5; assay: Growth inhibition of human OVCAR5 cells assessed as cell growth at 10 uM incubated for 48 hrs by sulforhodamine B assay relative to control; conditions: OVCAR-5, 48 h, read-out: Activity
[4] = test system: SNB-75; assay: Growth inhibition of human SNB75 cells assessed as cell growth at 10 uM incubated for 48 hrs by sulforhodamine B assay relative to control; conditions: SNB-75, 48 h, read-out: Activity
[5] = test system: SF-539; assay: Growth inhibition of human SF539 cells assessed as cell growth at 10 uM incubated for 48 hrs by sulforhodamine B assay relative to control; conditions: SF-539, 48 h, read-out: Activity
[6] = test system: SF-268; assay: Growth inhibition of human SF268 cells assessed as cell growth at 10 uM incubated for 48 hrs by sulforhodamine B assay relative to control; conditions: SF-268, 48 h, read-out: Activity
[7] = test system: OVCAR-3; assay: Growth inhibition of human OVCAR3 cells assessed as cell growth at 10 uM incubated for 48 hrs by sulforhodamine B assay relative to control; conditions: OVCAR-3, 48 h, read-out: Activity
[8] = test system: MDA-MB-468; assay: Growth inhibition of human MDA-MB-468 cells assessed as cell growth at 10 uM incubated for 48 hrs by sulforhodamine B assay relative to control; conditions: MDA-MB-468, 48 h, read-out: Activity
[9] = test system: SF-295; assay: Growth inhibition of human SF295 cells assessed as cell growth at 10 uM incubated for 48 hrs by sulforhodamine B assay relative to control; conditions: SF-295, 48 h, read-out: Activity
[10] = test system: U-251; assay: Growth inhibition of human U251 cells assessed as cell growth at 10 uM incubated for 48 hrs by sulforhodamine B assay relative to control; conditions: U-251, 48 h, read-out: Activity
[11] = test system: SR; assay: Growth inhibition of human SR cells assessed as cell growth at 10 uM incubated for 48 hrs by sulforhodamine B assay relative to control; conditions: read-out: Activity
[12] = test system: M14; assay: Growth inhibition of human M14 cells assessed as cell growth at 10 uM incubated for 48 hrs by sulforhodamine B assay relative to control; conditions: M14, 48 h, read-out: Activity
[13] = test system: HCT-116; assay: Growth inhibition of human HCT116 cells assessed as cell growth at 10 uM incubated for 48 hrs by sulforhodamine B assay relative to control; conditions: HCT-116, 48 h, read-out: Activity
[14] = test system: SK-OV-3; assay: Growth inhibition of human SKOV3 cells assessed as cell growth at 10 uM incubated for 48 hrs by sulforhodamine B assay relative to control; conditions: SK-OV-3, 48 h, read-out: Activity
[15] = test system: SNB-19; assay: Growth inhibition of human SNB19 cells assessed as cell growth at 10 uM incubated for 48 hrs by sulforhodamine B assay relative to control; conditions: SNB-19, 48 h, read-out: Activity
[16] = test system: NCI-H226; assay: Growth inhibition of human NCI-H226 cells assessed as cell growth at 10 uM incubated for 48 hrs by sulforhodamine B assay relative to control; conditions: NCI-H226, 48 h, read-out: Activity
[17] = test system: K562; assay: Growth inhibition of human K562 cells assessed as cell growth at 10 uM incubated for 48 hrs by sulforhodamine B assay relative to control; conditions: K562, 48 h, read-out: Activity
[18] = test system: UACC-62; assay: Growth inhibition of human UACC62 cells assessed as cell growth at 10 uM incubated for 48 hrs by sulforhodamine B assay relative to control; conditions: UACC-62, 48 h, read-out: Activity
[19] = test system: RPMI-8226; assay: Growth inhibition of human RPMI8226 cells assessed as cell growth at 10 uM incubated for 48 hrs by sulforhodamine B assay relative to control; conditions: RPMI-8226, 48 h, read-out: Activity
[20] = test system: LOX IMVI; assay: Growth inhibition of human LOXIMVI cells assessed as cell growth at 10 uM incubated for 48 hrs by sulforhodamine B assay relative to control; conditions: read-out: Activity
[21] = test system: CAKI-1; assay: Growth inhibition of human Caki1 cells assessed as cell growth at 10 uM incubated for 48 hrs by sulforhodamine B assay relative to control; conditions: CAKI-1, 48 h, read-out: Activity
[22] = test system: T47D; assay: Growth inhibition of human T47D cells assessed as cell growth at 10 uM incubated for 48 hrs by sulforhodamine B assay relative to control; conditions: read-out: Activity
[23] = test system: RXF 393; assay: Growth inhibition of human RXF393 cells assessed as cell growth at 10 uM incubated for 48 hrs by sulforhodamine B assay relative to control; conditions: RXF 393, 48 h, read-out: Activity
[24] = test system: HL-60(TB); assay: Growth inhibition of human HL-60(TB) cells assessed as cell growth at 10 uM incubated for 48 hrs by sulforhodamine B assay relative to control; conditions: HL-60, 48 h, read-out: Activity
[25] = test system: MDA-MB-435; assay: Growth inhibition of human MDA-MB-435 cells assessed as cell growth at 10 uM incubated for 48 hrs by sulforhodamine B assay relative to control; conditions: MDA-MB-435, 48 h, read-out: Activity
[26] = test system: MDA-MB-231; assay: Growth inhibition of human MDA-MB-231 cells assessed as cell growth at 10 uM incubated for 48 hrs by sulforhodamine B assay relative to control; conditions: MDA-MB-231, 48 h, read-out: Activity
[27] = test system: NCI-H460; assay: Growth inhibition of human NCI-H460 cells assessed as cell growth at 10 uM incubated for 48 hrs by sulforhodamine B assay relative to control; conditions: NCI-H460, 48 h, read-out: Activity
[28] = test system: ACHN; assay: Growth inhibition of human ACHN cells assessed as cell growth at 10 uM incubated for 48 hrs by sulforhodamine B assay relative to control; conditions: read-out: Activity
[29] = test system: Hs-578T; assay: Growth inhibition of human Hs578T cells assessed as cell growth at 10 uM incubated for 48 hrs by sulforhodamine B assay relative to control; conditions: read-out: Activity
[30] = test system: KM12; assay: Growth inhibition of human KM12 cells assessed as cell growth at 10 uM incubated for 48 hrs by sulforhodamine B assay relative to control; conditions: KM12, 48 h, read-out: Activity
[31] = test system: BT-549; assay: Growth inhibition of human BT549 cells assessed as cell growth at 10 uM incubated for 48 hrs by sulforhodamine B assay relative to control; conditions: BT-549, 48 h, read-out: Activity
[32] = test system: HCC 2998; assay: Growth inhibition of human HCC2998 cells assessed as cell growth at 10 uM incubated for 48 hrs by sulforhodamine B assay relative to control; conditions: HCC 2998, 48 h, read-out: Activity
[33] = test system: SW-620; assay: Growth inhibition of human SW620 cells assessed as cell growth at 10 uM incubated for 48 hrs by sulforhodamine B assay relative to control; conditions: SW-620, 48 h, read-out: Activity

SMILES: COc1cc(Cl)cc(-c2nn(-c3cccc(NC(=O)c4cccc(C(F)(F)F)c4)c3)cc2-c2ccncc2)c1
- growth at 10 µM [1]: 80.7%
- growth at 10 µM [2]: 71.8%
- growth at 10 µM [3]: 84%
- growth at 10 µM [4]: 53.9%
- growth at 10 µM [5]: 64.2%
- growth at 10 µM [6]: 77.3%
- growth at 10 µM [7]: 52.3%
- growth at 10 µM [8]: 47%
- growth at 10 µM [9]: 37.9%
- growth at 10 µM [10]: 49.2%
- growth at 10 µM [11]: 29.1%
- growth at 10 µM [12]: 56.3%
- growth at 10 µM [13]: 34.1%
- growth at 10 µM [14]: 81.6%
- growth at 10 µM [15]: 82.2%
- growth at 10 µM [16]: 69%
- growth at 10 µM [17]: 26%
- growth at 10 µM [18]: 74.5%
- growth at 10 µM [19]: 31.5%
- growth at 10 µM [20]: 51.7%
- growth at 10 µM [21]: 54%
- growth at 10 µM [22]: 36.6%
- growth at 10 µM [23]: 40.5%
- growth at 10 µM [24]: 67.3%
- growth at 10 µM [25]: 65.6%
- growth at 10 µM [26]: 21.4%
- growth at 10 µM [27]: 41.1%
- growth at 10 µM [28]: 48.1%
- growth at 10 µM [29]: 62.2%
- growth at 10 µM [30]: 43.7%
- growth at 10 µM [31]: 89.5%
- growth at 10 µM [32]: 54.6%
- growth at 10 µM [33]: 77%

SMILES: COc1cc(Cl)cc(-c2nn(-c3cccc(NC(=O)c4ccc(Cl)c(Cl)c4)c3)cc2-c2ccncc2)c1
- growth at 10 µM [1]: 71.6%
- growth at 10 µM [2]: 58.6%
- growth at 10 µM [3]: 79.2%
- growth at 10 µM [4]: 50.6%
- growth at 10 µM [5]: 74.5%
- growth at 10 µM [6]: 82.4%
- growth at 10 µM [7]: 53.4%
- growth at 10 µM [8]: 54.6%
- growth at 10 µM [9]: 36.1%
- growth at 10 µM [10]: 64.1%
- growth at 10 µM [11]: 43.6%
- growth at 10 µM [12]: 68.9%
- growth at 10 µM [13]: 44.1%
- growth at 10 µM [14]: 80.1%
- growth at 10 µM [15]: 71.5%
- growth at 10 µM [16]: 66.2%
- growth at 10 µM [17]: 46.4%
- growth at 10 µM [18]: 75.4%
- growth at 10 µM [19]: 46%
- growth at 10 µM [20]: 72.8%
- growth at 10 µM [21]: 63.6%
- growth at 10 µM [22]: 63.2%
- growth at 10 µM [23]: 59.2%
- growth at 10 µM [24]: 94.1%
- growth at 10 µM [25]: 80.8%
- growth at 10 µM [26]: 33.9%
- growth at 10 µM [27]: 65.2%
- growth at 10 µM [28]: 63.9%
- growth at 10 µM [29]: 63.6%
- growth at 10 µM [30]: 62.3%
- growth at 10 µM [31]: 85.2%
- growth at 10 µM [32]: 77.8%
- growth at 10 µM [33]: 84.2%

SMILES: COc1cc(Cl)cc(-c2nn(-c3cccc(NC(=O)Nc4ccc(Cl)c(Cl)c4)c3)cc2-c2ccncc2)c1
- growth at 10 µM [1]: 36.7%
- growth at 10 µM [2]: 13.3%
- growth at 10 µM [3]: 37.8%
- growth at 10 µM [4]: 16.2%
- growth at 10 µM [5]: 20.9%
- growth at 10 µM [6]: 25.3%
- growth at 10 µM [7]: 4.11%
- growth at 10 µM [8]: 0.72%
- growth at 10 µM [9]: -2.42%
- growth at 10 µM [10]: 3.01%
- growth at 10 µM [11]: -18.4%
- growth at 10 µM [12]: 18.7%
- growth at 10 µM [13]: 9.22%
- growth at 10 µM [14]: 14.2%
- growth at 10 µM [15]: 17.8%
- growth at 10 µM [16]: 7.27%
- growth at 10 µM [17]: 10%
- growth at 10 µM [18]: 4.38%
- growth at 10 µM [19]: -4.44%
- growth at 10 µM [20]: 9.24%
- growth at 10 µM [21]: 7.49%
- growth at 10 µM [22]: 18.6%
- growth at 10 µM [23]: 4.46%
- growth at 10 µM [24]: -5.12%
- growth at 10 µM [25]: 0.46%
- growth at 10 µM [26]: -21%
- growth at 10 µM [27]: 3.1%
- growth at 10 µM [28]: 9.65%
- growth at 10 µM [29]: 28.5%
- growth at 10 µM [30]: 14.3%
- growth at 10 µM [31]: 29.4%
- growth at 10 µM [32]: 26.7%
- growth at 10 µM [33]: 13.3%

SMILES: O=C(Nc1cccc(-n2cc(-c3ccncc3)c(-c3cc(O)cc(Cl)c3)n2)c1)c1ccc(N2CCOCC2)c(C(F)(F)F)c1
- growth at 10 µM [1]: 44.3%
- growth at 10 µM [2]: 77.1%
- growth at 10 µM [3]: 81.4%
- growth at 10 µM [4]: 23.1%
- growth at 10 µM [5]: 2.4%
- growth at 10 µM [6]: 52.7%
- growth at 10 µM [7]: 36.4%
- growth at 10 µM [8]: 26%
- growth at 10 µM [9]: -35.4%
- growth at 10 µM [10]: -9.64%
- growth at 10 µM [11]: -12.4%
- growth at 10 µM [12]: -20.7%
- growth at 10 µM [13]: 12.7%
- growth at 10 µM [14]: 50.7%
- growth at 10 µM [15]: 12.1%
- growth at 10 µM [16]: 94.7%
- growth at 10 µM [17]: -15.5%
- growth at 10 µM [18]: 10.8%
- growth at 10 µM [19]: -3.77%
- growth at 10 µM [20]: -48.7%
- growth at 10 µM [21]: 14.8%
- growth at 10 µM [22]: 29.3%
- growth at 10 µM [23]: -45.6%
- growth at 10 µM [24]: -46.4%
- growth at 10 µM [25]: 23%
- growth at 10 µM [26]: -48%
- growth at 10 µM [27]: -26.1%
- growth at 10 µM [28]: 20.7%
- growth at 10 µM [29]: 17.9%
- growth at 10 µM [30]: 9.89%
- growth at 10 µM [31]: 52.2%
- growth at 10 µM [32]: -3.65%
- growth at 10 µM [33]: -26.2%
